Experimental data from PMC9848300, “Discovery of novel enasidenib analogues targeting inhibition of mutant isocitrate dehydrogenase 2 as antileukaemic agents” (Journal of Enzyme Inhibition and Medicinal Chemistry, 2023).
“And” between values parts separate entries of the source, which are not always exact repeats. Equal values may be shown once.

Columns and labels:
[1] = system: SNB-75; assay: NCI 60 antitumor screening (single dose / five doses); format: cell-based; details: Homo sapiens; for inhibition at 10 µM: SNB-75 (CNS cancer), single dose 10 μM, read-out: Growth inhibition percentage (GI %)
[2] = system: T-47D; assay: as above; format: cell-based; details: Homo sapiens, T47D; for inhibition at 10 µM: T-47D (breast cancer), single dose 10 μM, read-out: Growth inhibition percentage (GI %)
[3] = system: A498; assay: as above; format: cell-based; details: Homo sapiens; for inhibition at 10 µM: A498 (renal cancer), single dose 10 μM, read-out: Growth inhibition percentage (GI %)
[4] = system: MDA-MB-435; assay: as above; format: cell-based; details: Homo sapiens; for inhibition at 10 µM: MDA-MB-435 (melanoma), single dose 10 μM, read-out: Growth inhibition percentage (GI %)
[5] = system: UACC-62; assay: as above; format: cell-based; details: Homo sapiens; for inhibition at 10 µM: UACC-62 (melanoma), single dose 10 μM, read-out: Growth inhibition percentage (GI %)
[6] = system: BT-549; assay: as above; format: cell-based; details: Homo sapiens; for inhibition at 10 µM: BT-549 (breast cancer), single dose 10 μM, read-out: Growth inhibition percentage (GI %)
[7] = system: MCF7; assay: NCI 60 antitumor screening (single dose); format: cell-based; details: Homo sapiens; MCF7 (breast cancer), single dose 10 μM; read-out: Growth inhibition percentage (GI %)
How it was run: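 Read-out is percent growth (G%) of treated cancer cells relative to untreated, converted to percent inhibition as 100 − G%. Each compound was applied once at 10 μM across 60 human tumour lines under the NCI protocol.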

[8] = system: SF-268; assay: NCI 60 antitumor screening (single dose); format: cell-based; details: Homo sapiens; SF-268 (CNS cancer), single dose 10 μM; read-out: Growth inhibition percentage (GI %)
How it was run: (§1)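 Test compound added at 10 μM to each of 60 human cancer lines from nine tumour types; growth measured per NCI protocol in triplicate; percent growth converted to inhibition (100 − G%).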

[9] = system: UACC-257; assay: NCI 60 antitumor screening (single dose / five doses); format: cell-based; details: Homo sapiens; for inhibition at 10 µM: UACC-257 (melanoma), single dose 10 μM, read-out: Growth inhibition percentage (GI %)
[10] = system: RXF 393; assay: as above; format: cell-based; details: Homo sapiens; for inhibition at 10 µM: RXF 393 (renal cancer), single dose 10 μM, read-out: Growth inhibition percentage (GI %)
[11] = system: SN 12C; assay: as above; format: cell-based; details: Homo sapiens, SN12C; for inhibition at 10 µM: SN 12C (renal cancer), single dose 10 μM, read-out: Growth inhibition percentage (GI %)
[12] = system: LOX IMVI; assay: as above; format: cell-based; details: Homo sapiens; for inhibition at 10 µM: LOX IMVI (melanoma), single dose 10 μM, read-out: Growth inhibition percentage (GI %)
[13] = system: HCT-15; assay: as above; format: cell-based; details: Homo sapiens; for inhibition at 10 µM: HCT-15 (colon cancer), single dose 10 μM, read-out: Growth inhibition percentage (GI %)
[14] = system: UO-31; assay: as above; format: cell-based; details: Homo sapiens; for inhibition at 10 µM: UO-31 (renal cancer), single dose 10 μM, read-out: Growth inhibition percentage (GI %)
[15] = system: SK-MEL-2; assay: as above; format: cell-based; details: Homo sapiens; for inhibition at 10 µM: SK-MEL-2 (melanoma), single dose 10 μM, read-out: Growth inhibition percentage (GI %)
[16] = system: 60 human subpanel cancer cell lines; assay: NCI 60 antitumor screening, mean over the panel (single dose); format: cell-based; details: mean over 60 cancer cell lines, single dose 10 μM
How it was run: as §1

[17] = system: SK-MEL-28; assay: NCI 60 antitumor screening (single dose / five doses); format: cell-based; details: Homo sapiens; for inhibition at 10 µM: SK-MEL-28 (melanoma), single dose 10 μM, read-out: Growth inhibition percentage (GI %)
[18] = system: COLO 205; assay: as above; format: cell-based; details: Homo sapiens; for inhibition at 10 µM: COLO 205 (colon cancer), single dose 10 μM, read-out: Growth inhibition percentage (GI %)
[19] = system: K-562; assay: as above; format: cell-based; details: Homo sapiens, K562; for inhibition at 10 µM: K-562 (leukaemia), single dose 10 μM, read-out: Growth inhibition percentage (GI %)
[20] = system: HCT-116; assay: as above; format: cell-based; details: Homo sapiens; for inhibition at 10 µM: HCT-116 (colon cancer), single dose 10 μM, read-out: Growth inhibition percentage (GI %)
[21] = system: HOP-92; assay: as above; format: cell-based; details: Homo sapiens; for inhibition at 10 µM: HOP-92 (non-small cell lung cancer), single dose 10 μM, read-out: Growth inhibition percentage (GI %)
[22] = system: HL-60(TB); assay: as above; format: cell-based; details: Homo sapiens; for inhibition at 10 µM: HL-60(TB) (leukaemia), single dose 10 μM, read-out: Growth inhibition percentage (GI %)
[23] = system: ACHN; assay: as above; format: cell-based; details: Homo sapiens; for inhibition at 10 µM: ACHN (renal cancer), single dose 10 μM, read-out: Growth inhibition percentage (GI %)
[24] = system: 786-0; assay: as above; format: cell-based; details: Homo sapiens; for inhibition at 10 µM: 786-0, 786-0 (renal cancer), single dose 10 μM, read-out: Growth inhibition percentage (GI %)
[25] = system: SF-539; assay: as above; format: cell-based; details: Homo sapiens; for inhibition at 10 µM: SF-539 (CNS cancer), single dose 10 μM, read-out: Growth inhibition percentage (GI %)
[26] = system: HT29; assay: as above; format: cell-based, human; details: Homo sapiens; for inhibition at 10 µM: HT-29, HT29 (colon cancer), single dose 10 μM, read-out: Growth inhibition percentage (GI %)
[27] = system: DU-145; assay: as above; format: cell-based; details: Homo sapiens; for inhibition at 10 µM: DU-145 (prostate cancer), single dose 10 μM, read-out: Growth inhibition percentage (GI %)
[28] = system: MDA-MB-231/ATCC; assay: as above; format: cell-based; details: Homo sapiens; for inhibition at 10 µM: MDA-MB-231/ATCC (breast cancer), single dose 10 μM, read-out: Growth inhibition percentage (GI %)
[29] = system: IGROV1; assay: as above; format: cell-based; details: Homo sapiens, IGROV-1; for inhibition at 10 µM: IGROV1 (ovarian cancer), single dose 10 μM, read-out: Growth inhibition percentage (GI %)

## Clc1cccc(/C=N/Nc2nc(N/N=C/c3cccc(Cl)c3)nc(N3CCOCC3)n2)c1 [compound 6d, 2,4-Bis[(E)-2-[(3-chlorophenyl)methylidene]hydrazin-1-yl]-6-(morpholin-4-yl)-1,3,5-triazine]
[1]
  inhibition at 10 µM: -2.64%
[1]; SNB-75, five doses (0.01–100 μM), read-out: GI50
  GI50: 3330 nM
[2]
  inhibition at 10 µM: 31.5%
[2]; T-47D, five doses (0.01–100 μM), read-out: GI50
  GI50: 3540 nM
[3]
  inhibition at 10 µM: 95.7%
[3]; A498, five doses (0.01–100 μM), read-out: GI50
  GI50: 1670 nM
[4]
  inhibition at 10 µM: 50.7%
[4]; MDA-MB-435, five doses (0.01–100 μM), read-out: GI50
  GI50: 4240 nM
[5]
  inhibition at 10 µM: 8.33%
[5]; UACC-62, five doses (0.01–100 μM), read-out: GI50
  GI50: 4540 nM
[6]
  inhibition at 10 µM: 7.26%
[6]; BT-549, five doses (0.01–100 μM), read-out: GI50
  GI50: 3220 nM
[7]
  inhibition at 10 µM: 57%
[8]
  inhibition at 10 µM: 34.1%
[9]
  inhibition at 10 µM: 60.9%
[9]; UACC-257, five doses (0.01–100 μM), read-out: GI50
  GI50: 2470 nM
[10]
  inhibition at 10 µM: 82.5%
[10]; RXF 393, five doses (0.01–100 μM), read-out: GI50
  GI50: 1000 nM
[11]
  inhibition at 10 µM: 40.1%
[11]; SN 12C, five doses (0.01–100 μM), read-out: GI50
  GI50: 4990 nM
[12]
  inhibition at 10 µM: 67.4%
[12]; LOX IMVI, five doses (0.01–100 μM), read-out: GI50
  GI50: 2990 nM
[13]
  inhibition at 10 µM: 111%
[13]; HCT-15, five doses (0.01–100 μM), read-out: GI50
  GI50: 910 nM
[14]
  inhibition at 10 µM: 73.2%
[14]; UO-31, five doses (0.01–100 μM), read-out: GI50
  GI50: 1610 nM
[15]
  inhibition at 10 µM: 102%
[15]; SK-MEL-2, five doses (0.01–100 μM)
  GI50: 2180 nM
[16]
  Mean GI %: 53.70% and 53.69%
[17]
  inhibition at 10 µM: 70.2%
[17]; SK-MEL-28, five doses (0.01–100 μM), read-out: GI50
  GI50: 2860 nM
[18]
  inhibition at 10 µM: 63.1%
[18]; COLO 205, five doses (0.01–100 μM), read-out: GI50
  GI50: 1230 nM
[19]
  inhibition at 10 µM: 88.2%
[19]; K-562, five doses (0.01–100 μM), read-out: GI50
  GI50: 690 nM
[20]
  inhibition at 10 µM: 77.2%
[20]; HCT-116, five doses (0.01–100 μM), read-out: GI50
  GI50: 1270 nM
[21]
  inhibition at 10 µM: 34.5%
[21]; HOP-92, five doses (0.01–100 μM), read-out: GI50
  GI50: 2170 nM
[22]
  inhibition at 10 µM: 110%
[22]; HL-60(TB), five doses (0.01–100 μM), read-out: GI50
  GI50: 500 nM
[23]
  inhibition at 10 µM: 74.2%
[23]; ACHN, five doses (0.01–100 μM), read-out: GI50
  GI50: 2110 nM
[24]
  inhibition at 10 µM: 69.4%
[24]; 786-0, five doses (0.01–100 μM), read-out: GI50
  GI50: 1070 nM
[25]
  inhibition at 10 µM: 56.4%
[25]; SF-539, five doses (0.01–100 μM), read-out: GI50
  GI50: 5390 nM
[26]; HT-29, HT29, five doses (0.01–100 μM), read-out: GI50
  GI50: 1340 nM
[26]
  inhibition at 10 µM: 91.8%
[27]
  inhibition at 10 µM: 57.5%
[27]; DU-145, five doses (0.01–100 μM), read-out: GI50
  GI50: 2620 nM
[28]; MDA-MB-231/ ATCC, five doses (0.01–100 μM), read-out: GI50
  GI50: 9160 nM
[28]
  inhibition at 10 µM: 28.7%
[29]
  inhibition at 10 µM: 49.4%
[29]; IGROV1, five doses (0.01–100 μM), read-out: GI50
  GI50: 4610 nM

## Fc1cccc(/C=N/Nc2nc(N/N=C/c3cccc(F)c3)nc(N3CCOCC3)n2)c1 [compound 6e, 2,4-Bis[(E)-2-[(3-Fluorophenyl)methylidene]hydrazin-1-yl]-6-(morpholin-4-yl)-1,3,5-triazine]
[1]
  inhibition at 10 µM: 18.3%
[2]
  inhibition at 10 µM: 10.3%
[3]
  inhibition at 10 µM: 52%
[4]
  inhibition at 10 µM: 1.89%
[5]
  inhibition at 10 µM: -5.24%
[6]
  inhibition at 10 µM: 11.6%
[7]
  inhibition at 10 µM: 19.3%
[8]
  inhibition at 10 µM: 4.91%
[9]
  inhibition at 10 µM: 6.59%
[10]
  inhibition at 10 µM: 79.3%
[11]
  inhibition at 10 µM: 8.98%
[12]
  inhibition at 10 µM: 0.67%
[13]
  inhibition at 10 µM: 52.5%
[14]
  inhibition at 10 µM: 30.3%
[15]
  inhibition at 10 µM: 2.51%
[16]
  Mean GI %: 15.60%
[17]
  inhibition at 10 µM: 10.1%
[18]
  inhibition at 10 µM: 37.4%
[19]
  inhibition at 10 µM: 35.3%
[20]
  inhibition at 10 µM: 24.6%
[21]
  inhibition at 10 µM: 8.68%
[22]
  inhibition at 10 µM: 50.9%
[23]
  inhibition at 10 µM: 20.9%
[24]
  inhibition at 10 µM: 54%
[25]
  inhibition at 10 µM: 12.6%
[26]
  inhibition at 10 µM: 53.5%
[27]
  inhibition at 10 µM: 40.5%
[28]
  inhibition at 10 µM: 3.49%
[29]
  inhibition at 10 µM: 18.4%
